# Results published in patent publication EP3952873B1 (priority 2019, dated 2020).
# “Also recorded” adds a separate entry of the source.
# Experiments:
# [1] = biological target: T1, GHB high-affinity binding site/CaMK2a (Rattus norvegicus, UniProt P11275); test: Rat brain membrane [3H]NCS-382 binding assay; details: 16 nM [3H]NCS-382, rat cortical synaptic membranes, pH 6.0, 0-4 °C
# T1 construct: rat (Sprague-Dawley) cortical synaptic membranes (P2 synaptosomes) were prepared; from tissue; host or cells: rat (Sprague-Dawley) cortical synaptic membranes (P2 synaptosomes)
# Description: According to previously published protocols, rat (Sprague-Dawley) cortical synaptic membranes (P2 synaptosomes) were prepared and stored at -20 °C until the day of assay (Wellendorph et al., 2005). Membranes were then washed three times with binding buffer (50 mM potassium phosphate buffer pH 6.0). The binding protocol was performed in 96-well microplates. In brief, compounds were incubated with 16 nM [^3H]NCS-382 radioligand and membranes for 60 min at 0-4 °C, filtered through GF/C filter plates (PerkinElmer) using a 96-well harvester (Packard), rapidly washed three times with ice-cold binding buffer, and filter plates dried. CPM values were determined using liquid scintillation counting in a TopCount NXT Microplate Scintillation & Luminescence Counter (PerkinElmer). Curves were generated using non-linear regression (GraphPad Prism 7, GraphPad Prism Software, San Diego, CA, USA).
# JON-11, related analogues, and pro-JON-11(10) were tested in the [^3H]NCS-382 binding assay (Wellendorph et al., 2005).
# [2] = in vivo; design: species or system mice; details: male, C57BL/6JRj, mouse, ip, 10 mg/kg
# Description: To evaluate the ability of pro-JON-11 (10) and JON-11 to penetrate the blood-brain barrier, a brain-to-plasma distribution ratio (B/P ratio) was obtained. All subjects were male C57BL/6JRj mice (24-26 g, Janvier Labs, France) housed in groups of three-four with ad libitum access to food and water. The mice were maintained under diurnal conditions (12-h light/dark cycle with lights on at 7 AM) in a temperature (22±1 °C) and humidity-controlled room (50±10%). Ethical permission for the procedures used in this in vivo study was granted by the Danish Animal Experiments Inspectorate.
# Compounds were dissolved in PEG-400 (Sigma) at 20% of the final required volume. The final volume was then made up by 10% (w/v) hydroxypropyl-beta-cyclodextrin (Sigma Aldrich) in sterile saline. The solution was sonicated for 5 min. The JON-11 solution was pH-adjusted to 7.4 with 0.2% 2M NaOH.
# Both compounds were injected i.p. at a dose of 10 mg/kg (n=3 for each compound). […] After 30 min, the animals were sacrificed by decapitation, trunk blood was collected in EDTA-coated tubes and the brain was gently removed. Blood and tissues were temporarily stored on ice until plasma and brain homogenate preparation. Blood plasma was separated from cells by centrifugation for 10 min at 1,500 x g at 4 °C and plasma harvested. […]
# Plasma and brain exposure of JON-11 and pro-JON-11 were evaluated in male mice. […]
# [3] = biological target: T2, GABAB(1b,2) receptors (Homo sapiens, UniProt Q9UBS5); test: GABAB functional assay in CHO cells; assay type: cell-based; details: CHO cells stably expressing GABAB(1b,2), concentrations up to 300 µM
# T2 construct: expressed in transfected cells
# From the text: To assess affinity of JON-11 for the GABAB receptor, we employed a GABAB binding assay using rat brain synaptic membranes (Wellendorph et al., 2005). […] B) JON-11 was further assessed for functional activity using CHO cells stably expressing GABAB(1b,2) receptors (Rajalu et al., 2015).
# [4] = system: DTA mouse model; test: DTA mouse model of narcolepsy (EEG/EMG, cataplexy); assay type: in vivo; details: after 8-11 days of chronic administration, 100 mg/kg i.p.
# Description: Using the DTA mouse model (Tabuchi et al., 2014) we determined changes in sleep-wake EEG/EMG patterns (including cataplexy) at different time points (1 day and 8-11 days) under the influence of JON-11. After drug cessation day 14, EEG/EMG changes were mapped up to day 33. Under anesthesia with isoflurane (2% to 2.5% in O2) electrodes were placed in the scull and neck muscles of the mice. After 5-10 days recovery the electrodes are connected to a recording system, and EEG/EMG signals are recorded with synchronised video recordings. From the data, sleep/wake parameters and cataplexy episodes are scored and calculated. Analyses were performed by an observer blinded to the treatment groups.
# T2 sequence (Q9UBS5 1-844 isoform Q9UBS5-2): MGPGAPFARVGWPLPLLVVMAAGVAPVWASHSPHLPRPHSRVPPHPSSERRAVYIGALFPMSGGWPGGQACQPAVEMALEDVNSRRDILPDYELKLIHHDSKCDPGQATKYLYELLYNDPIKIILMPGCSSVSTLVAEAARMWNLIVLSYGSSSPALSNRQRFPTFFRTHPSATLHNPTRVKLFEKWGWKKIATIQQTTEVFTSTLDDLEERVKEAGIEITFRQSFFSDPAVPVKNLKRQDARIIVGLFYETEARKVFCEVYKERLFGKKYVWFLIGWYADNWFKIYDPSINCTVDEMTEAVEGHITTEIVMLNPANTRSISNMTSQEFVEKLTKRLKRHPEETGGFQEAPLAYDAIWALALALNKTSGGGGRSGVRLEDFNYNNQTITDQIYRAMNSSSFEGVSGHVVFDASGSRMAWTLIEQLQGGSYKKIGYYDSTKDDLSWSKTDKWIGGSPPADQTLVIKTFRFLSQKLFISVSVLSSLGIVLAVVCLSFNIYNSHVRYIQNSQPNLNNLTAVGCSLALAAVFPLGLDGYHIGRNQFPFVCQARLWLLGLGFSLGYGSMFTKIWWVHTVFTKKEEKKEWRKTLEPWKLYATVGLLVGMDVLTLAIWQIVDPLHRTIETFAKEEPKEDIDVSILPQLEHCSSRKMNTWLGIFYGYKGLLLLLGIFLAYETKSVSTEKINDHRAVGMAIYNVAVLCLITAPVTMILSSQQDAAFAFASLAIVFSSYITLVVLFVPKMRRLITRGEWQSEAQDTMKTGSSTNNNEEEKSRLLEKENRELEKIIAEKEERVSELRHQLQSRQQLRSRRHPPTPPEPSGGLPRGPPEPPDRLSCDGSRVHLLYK
# T2 sequence (O75899 42-941 partner): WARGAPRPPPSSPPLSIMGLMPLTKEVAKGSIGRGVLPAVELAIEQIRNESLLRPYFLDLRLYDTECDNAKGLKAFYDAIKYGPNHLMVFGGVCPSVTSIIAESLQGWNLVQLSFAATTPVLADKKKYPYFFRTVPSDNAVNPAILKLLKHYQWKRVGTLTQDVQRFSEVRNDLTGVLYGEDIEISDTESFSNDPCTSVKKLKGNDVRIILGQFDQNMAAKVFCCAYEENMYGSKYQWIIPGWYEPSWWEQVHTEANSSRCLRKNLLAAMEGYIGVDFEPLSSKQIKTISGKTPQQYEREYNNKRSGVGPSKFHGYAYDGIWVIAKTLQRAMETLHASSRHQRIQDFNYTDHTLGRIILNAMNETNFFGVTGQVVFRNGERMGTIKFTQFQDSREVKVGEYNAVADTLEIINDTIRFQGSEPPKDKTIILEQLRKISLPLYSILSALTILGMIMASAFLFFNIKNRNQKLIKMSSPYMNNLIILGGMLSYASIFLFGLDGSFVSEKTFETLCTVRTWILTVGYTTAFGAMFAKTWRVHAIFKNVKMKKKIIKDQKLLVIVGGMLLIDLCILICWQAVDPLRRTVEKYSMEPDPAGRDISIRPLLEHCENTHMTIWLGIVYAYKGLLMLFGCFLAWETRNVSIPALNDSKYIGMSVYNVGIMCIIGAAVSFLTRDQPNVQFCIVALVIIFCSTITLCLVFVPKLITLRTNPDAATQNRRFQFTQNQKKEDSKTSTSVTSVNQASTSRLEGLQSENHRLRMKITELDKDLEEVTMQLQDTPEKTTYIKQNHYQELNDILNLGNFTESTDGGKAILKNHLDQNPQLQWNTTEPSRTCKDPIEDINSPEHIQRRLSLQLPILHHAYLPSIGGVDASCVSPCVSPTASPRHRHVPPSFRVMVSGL
# T1 sequence (P11275 whole entry): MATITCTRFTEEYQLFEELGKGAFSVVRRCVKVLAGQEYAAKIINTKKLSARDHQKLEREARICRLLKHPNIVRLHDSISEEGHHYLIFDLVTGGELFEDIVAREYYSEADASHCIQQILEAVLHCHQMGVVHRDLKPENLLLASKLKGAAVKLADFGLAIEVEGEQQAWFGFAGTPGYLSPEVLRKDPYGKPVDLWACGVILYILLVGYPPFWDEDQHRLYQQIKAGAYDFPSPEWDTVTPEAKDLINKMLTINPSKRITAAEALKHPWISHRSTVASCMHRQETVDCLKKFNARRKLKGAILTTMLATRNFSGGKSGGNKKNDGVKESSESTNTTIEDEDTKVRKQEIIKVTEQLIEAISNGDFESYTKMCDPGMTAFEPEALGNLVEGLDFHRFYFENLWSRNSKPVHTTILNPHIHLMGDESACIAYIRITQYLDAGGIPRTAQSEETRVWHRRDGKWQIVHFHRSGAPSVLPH
structure (smiles),measurement,setting,value
"O=C(O)Cc1cn2nc(-c3ccc(Cl)cc3)ccc2n1 [JON-11, 2-(6-(4-Chlorophenyl)imidazo[1,2-b]pyridazin-2-yl)acetic acid]",Ki,[1],220 nM
same,Kp at 30 min,[2],0.05
same,agonistic activity at recombinant GABAB receptors,[3],not a GABAB agonist; also recorded: Lack of agonistic activity
same,number of cataplexy attacks,[4],significantly decreases
